Experimental data published in patent US20260184662A1, “COMPOSITE OF ACID AND SALT, AND PREPARATION METHOD THEREFOR” (NANJING NUTRABUILDING BIO-TECH CO., LTD., priority 2022, published 2026).

Assay: Determination of moisture contents with KF moisture meter at different time points
Format: physicochemical
Conditions: temperature 23° C., humidity 92.5%
From the text: (§1) For R-3-hydroxybutyric acid, potassium R-3-hydroxybutyrate, mixture of R-3-hydroxybutyric acid and potassium R-3-hydroxybutyrate, and R-3-hydroxybutyric acid·potassium R-3-hydroxybutyrate complex of Example 1, under a certain condition, KF moisture meter was used to determine the moisture contents at different time points.
as §1, with “3-hydroxybutyric” for “R-3-hydroxybutyric”, “3-hydroxybutyrate,” for “R-3-hydroxybutyrate,”, “3-hydroxybutyrate” for “R-3-hydroxybutyrate”, “7,” for “1,”
as §1, with “S-3-hydroxybutyric” for “R-3-hydroxybutyric”, “S-3-hydroxybutyrate,” for “R-3-hydroxybutyrate,”, “S-3-hydroxybutyrate” for “R-3-hydroxybutyrate”, “13,” for “1,”
as §1, with “calcium” for “potassium”, “acid·calcium” for “acid·potassium”, “19,” for “1,”
(§2) For 3-hydroxybutyric acid, calcium 3-hydroxybutyrate, mixture of 3-hydroxybutyric acid and calcium 3-hydroxybutyrate, and 3-hydroxybutyric acid·calcium 3-hydroxybutyrate complex of Example 25, under a certain condition, KF moisture meter was used to determine the moisture contents at different time points.
as §2, with “S-3-hydroxybutyric” for “3-hydroxybutyric”, “S-3-hydroxybutyrate,” for “3-hydroxybutyrate,”, “S-3-hydroxybutyrate” for “3-hydroxybutyrate”, “31,” for “25,”
as §1, with “magnesium” for “potassium”, “acid·magnesium” for “acid·potassium”, “37,” for “1,”
as §2, with “magnesium” for “calcium”, “acid·magnesium 3-hydroxy butyrate” for “acid·calcium 3-hydroxybutyrate”, “43,” for “25,”
For S-3-hydroxybutyric acid, magnesium S-3-hydroxybutyrate, mixture of S-3-hydroxybutyric acid and magnesium S-3-hydroxybutyrate, and S-3-hydroxybutyric acid·magnesium S-3-hydroxybutyrate complex of Example 49, under a certain condition, KF moisture meter was used to determine the moisture contents at different time points.
(§3) For R-3-hydroxypentanoic acid, sodium R-3-hydroxypentanoate, mixture of R-3-hydroxypentanoic acid and sodium R-3-hydroxypentanoate, and R-3-hydroxypentanoic acid·sodium R-3-hydroxypentanoate complex of Example 55, under a certain condition, KF moisture meter was used to determine the moisture contents at different time points.
as §3, with “3-hydroxypentanoic” for “R-3-hydroxypentanoic”, “3-hydroxypentanoate,” for “R-3-hydroxypentanoate,”, “3-hydroxypentanoate” for “R-3-hydroxypentanoate”, “61,” for “55,”
as §3, with “S-3-hydroxypentanoic” for “R-3-hydroxypentanoic”, “S-3-hydroxypentanoate,” for “R-3-hydroxypentanoate,”, “S-3-hydroxypentanoate” for “R-3-hydroxypentanoate”, “67,” for “55,”

**Q.** Which “moisture content (%)” value (30 min) does the source give for C[C@@H](O)CC(=O)[O-].[K+] [Potassium R-3-hydroxybutyrate, potassium R-3-hydroxybutyrate] here?
**A.** 1.04%

**Q.** What about the “moisture content (%)” value (1 h) of the same compound?
**A.** 1.91%

**Q.** And the “moisture content (%)” value (2 h)?
**A.** 3.19%

**Q.** What about the “moisture content (%)” value (4 h) of the same compound?
**A.** 4.93%

**Q.** And the “moisture content (%)” value (6 h)?
**A.** 7.65%

**Q.** What about the “moisture content (%)” value (7 h) of the same compound?
**A.** 8.24%

**Q.** What about the “moisture content (%)” value (11 h) of the same compound?
**A.** 16.72%

**Q.** What about the “moisture content (%)” value (22 h) of the same compound?
**A.** 32.68%

**Q.** With C[C@H](O)CC(=O)[O-].C[C@H](O)CC(=O)[O-].[Mg+2] [Magnesium S-3-hydroxybutyrate, magnesium S-3-hydroxybutyrate] as the compound, how does the “moisture content (%)” value (30 min) read?
**A.** 0.88%

**Q.** What about the “moisture content (%)” value (1 h) of the same compound?
**A.** 1.28%

**Q.** And the “moisture content (%)” value (2 h)?
**A.** 2.43%

**Q.** And the “moisture content (%)” value (4 h)?
**A.** 4.22%

**Q.** And the “moisture content (%)” value (6 h)?
**A.** 6.37%

**Q.** What about the “moisture content (%)” value (7 h) of the same compound?
**A.** 8.24%

**Q.** And the “moisture content (%)” value (11 h)?
**A.** 12.35%

**Q.** What about the “moisture content (%)” value (22 h) of the same compound?
**A.** 18.54%

**Q.** Which results are given for C[C@H](O)CC(=O)[O-].[K+] [Potassium S-3-hydroxybutyrate, potassium S-3-hydroxybutyrate]?
**A.** moisture content (%) (30 min): 1.06%; moisture content (%) (1 h): 1.92%; moisture content (%) (2 h): 3.22%; moisture content (%) (4 h): 4.97%; moisture content (%) (6 h): 7.55%; moisture content (%) (7 h): 8.34%; moisture content (%) (11 h): 16.82%; moisture content (%) (22 h): 32.75%

**Q.** For C[C@H](O)CC(=O)[O-].C[C@H](O)CC(=O)[O-].[Ca+2] [Calcium S-3-hydroxybutyrate, calcium S-3-hydroxybutyrate], which “moisture content (%)” value (30 min) is on record?
**A.** 0.88%

**Q.** What about the “moisture content (%)” value (1 h) of the same compound?
**A.** 1.92%

**Q.** And the “moisture content (%)” value (2 h)?
**A.** 2.25%

**Q.** What about the “moisture content (%)” value (4 h) of the same compound?
**A.** 4.18%

**Q.** What about the “moisture content (%)” value (6 h) of the same compound?
**A.** 5.24%

**Q.** And the “moisture content (%)” value (7 h)?
**A.** 6.25%

**Q.** What about the “moisture content (%)” value (11 h) of the same compound?
**A.** 10.34%

**Q.** What about the “moisture content (%)” value (22 h) of the same compound?
**A.** 17.55%

**Q.** With C[C@@H](O)CC(=O)O [R-3-hydroxybutyric acid] as the compound, how does the “moisture content (%)” value (30 min) read?
**A.** 1.13%

**Q.** And the “moisture content (%)” value (1 h)?
**A.** 2.25%

**Q.** And the “moisture content (%)” value (2 h)?
**A.** 3.96%

**Q.** And the “moisture content (%)” value (4 h)?
**A.** 6.46%

**Q.** And the “moisture content (%)” value (6 h)?
**A.** 9.52%

**Q.** What about the “moisture content (%)” value (7 h) of the same compound?
**A.** 10.56%

**Q.** And the “moisture content (%)” value (11 h)?
**A.** 17.22%

**Q.** What about the “moisture content (%)” value (22 h) of the same compound?
**A.** 33.34%

**Q.** Which “moisture content (%)” value (30 min) does the source give for CCC(O)CC(=O)O (centres unmarked) [3-hydroxypentanoic acid] here?
**A.** 1.10%

**Q.** What about the “moisture content (%)” value (1 h) of the same compound?
**A.** 1.98%

**Q.** And the “moisture content (%)” value (2 h)?
**A.** 3.46%

**Q.** What about the “moisture content (%)” value (4 h) of the same compound?
**A.** 5.49%

**Q.** And the “moisture content (%)” value (6 h)?
**A.** 8.07%

**Q.** What about the “moisture content (%)” value (7 h) of the same compound?
**A.** 8.93%

**Q.** What about the “moisture content (%)” value (11 h) of the same compound?
**A.** 14.44%

**Q.** And the “moisture content (%)” value (22 h)?
**A.** 27.93%

**Q.** What does the source list for CC(O)CC(=O)O (centres unmarked) [3-hydroxybutyric acid]?
**A.** moisture content (%) (30 min): 1.32%; moisture content (%) (1 h): 2.37%; moisture content (%) (2 h): 4.15%; moisture content (%) (4 h): 6.59%; moisture content (%) (6 h): 9.68%; moisture content (%) (7 h): 10.71%; moisture content (%) (11 h): 17.33%; moisture content (%) (22 h): 33.51%

**Q.** For CC[C@H](O)CC(=O)O [S-3-hydroxypentanoic acid], which “moisture content (%)” value (30 min) is on record?
**A.** 1.03%

**Q.** What about the “moisture content (%)” value (1 h) of the same compound?
**A.** 1.90%

**Q.** What about the “moisture content (%)” value (2 h) of the same compound?
**A.** 3.38%

**Q.** What about the “moisture content (%)” value (4 h) of the same compound?
**A.** 5.27%

**Q.** What about the “moisture content (%)” value (6 h) of the same compound?
**A.** 7.94%

**Q.** What about the “moisture content (%)” value (7 h) of the same compound?
**A.** 8.85%

**Q.** And the “moisture content (%)” value (11 h)?
**A.** 14.23%

**Q.** And the “moisture content (%)” value (22 h)?
**A.** 27.46%

**Q.** For CC[C@@H](O)CC(=O)O [R-3-hydroxypentanoic acid], which “moisture content (%)” value (30 min) is on record?
**A.** 0.94%

**Q.** What about the “moisture content (%)” value (1 h) of the same compound?
**A.** 1.88%

**Q.** What about the “moisture content (%)” value (2 h) of the same compound?
**A.** 3.30%

**Q.** What about the “moisture content (%)” value (4 h) of the same compound?
**A.** 5.38%

**Q.** And the “moisture content (%)” value (6 h)?
**A.** 7.93%

**Q.** And the “moisture content (%)” value (7 h)?
**A.** 8.80%

**Q.** What about the “moisture content (%)” value (11 h) of the same compound?
**A.** 14.35%

**Q.** And the “moisture content (%)” value (22 h)?
**A.** 27.78%

**Q.** For CC(O)CC(=O)[O-].[K+] (centres unmarked) [Potassium 3-hydroxybutyrate, potassium 3-hydroxybutyrate], which “moisture content (%)” value (30 min) is on record?
**A.** 1.14%

**Q.** What about the “moisture content (%)” value (1 h) of the same compound?
**A.** 1.93%

**Q.** And the “moisture content (%)” value (2 h)?
**A.** 3.22%

**Q.** And the “moisture content (%)” value (4 h)?
**A.** 4.98%

**Q.** And the “moisture content (%)” value (6 h)?
**A.** 7.77%

**Q.** What about the “moisture content (%)” value (7 h) of the same compound?
**A.** 8.34%

**Q.** What about the “moisture content (%)” value (11 h) of the same compound?
**A.** 16.82%

**Q.** What about the “moisture content (%)” value (22 h) of the same compound?
**A.** 32.86%
